Test: xn = mol fraction of the nth substance listed
Conditions: 101 kPa, Liquid

CCC(C)O (configuration not stated) [butan-2-ol] + CCCCO
Conditions	mass density [kg/m3]	viscosity [mPa·s]
303.15 K, x2 = 0.1008	798.816	3.157
303.15 K, x2 = 0.2005	799.24	3.08
303.15 K, x2 = 0.3002	799.646	3.027
303.15 K, x2 = 0.4006	800.045	2.987
303.15 K, x2 = 0.5004	800.435	2.956
303.15 K, x2 = 0.6005	800.827	2.932
303.15 K, x2 = 0.6999	801.204	2.912
303.15 K, x2 = 0.7989	801.568	2.894
303.15 K, x2 = 0.8988	801.909	2.875
308.15 K, x2 = 0.1008	794.588	2.679
308.15 K, x2 = 0.2005	795.059	2.65
308.15 K, x2 = 0.3002	795.516	2.626
308.15 K, x2 = 0.4006	795.957	2.609
308.15 K, x2 = 0.5004	796.396	2.595
308.15 K, x2 = 0.6005	796.828	2.583
308.15 K, x2 = 0.6999	797.242	2.57
308.15 K, x2 = 0.7989	797.635	2.557
308.15 K, x2 = 0.8988	798.014	2.545
313.15 K, x2 = 0.1008	790.266	2.312
313.15 K, x2 = 0.2005	790.801	2.299
313.15 K, x2 = 0.3002	791.313	2.288
313.15 K, x2 = 0.4006	791.795	2.283
313.15 K, x2 = 0.5004	792.279	2.278
313.15 K, x2 = 0.6005	792.762	2.275
313.15 K, x2 = 0.6999	793.224	2.272
313.15 K, x2 = 0.7989	793.655	2.268
313.15 K, x2 = 0.8988	794.069	2.264
318.15 K, x2 = 0.1008	785.851	1.982
318.15 K, x2 = 0.2005	786.455	1.981
318.15 K, x2 = 0.3002	787.036	1.981
318.15 K, x2 = 0.4006	787.575	1.982
318.15 K, x2 = 0.5004	788.113	1.986
318.15 K, x2 = 0.6005	788.64	1.992
318.15 K, x2 = 0.6999	789.157	1.999
318.15 K, x2 = 0.7989	789.625	2.007
318.15 K, x2 = 0.8988	790.08	2.013
323.15 K, x2 = 0.1008	781.329	1.723
323.15 K, x2 = 0.2005	782.01	1.737
323.15 K, x2 = 0.3002	782.667	1.75
323.15 K, x2 = 0.4006	783.274	1.763
323.15 K, x2 = 0.5004	783.873	1.773
323.15 K, x2 = 0.6005	784.456	1.782
323.15 K, x2 = 0.6999	785.021	1.79
323.15 K, x2 = 0.7989	785.535	1.795
323.15 K, x2 = 0.8988	786.04	1.798
328.15 K, x2 = 0.1008	776.706	1.506
328.15 K, x2 = 0.2005	777.468	1.525
328.15 K, x2 = 0.3002	778.208	1.543
328.15 K, x2 = 0.4006	778.887	1.56
328.15 K, x2 = 0.5004	779.553	1.576
328.15 K, x2 = 0.6005	780.198	1.59
328.15 K, x2 = 0.6999	780.817	1.602
328.15 K, x2 = 0.7989	781.386	1.612
328.15 K, x2 = 0.8988	781.936	1.621
333.15 K, x2 = 0.1008	771.968	1.327
333.15 K, x2 = 0.2005	772.822	1.349
333.15 K, x2 = 0.3002	773.649	1.369
333.15 K, x2 = 0.4006	774.407	1.387
333.15 K, x2 = 0.5004	775.144	1.405
333.15 K, x2 = 0.6005	775.861	1.421
333.15 K, x2 = 0.6999	776.534	1.434
333.15 K, x2 = 0.7989	777.165	1.447
333.15 K, x2 = 0.8988	777.765	1.457
338.15 K, x2 = 0.1008	767.116	1.178
338.15 K, x2 = 0.2005	768.057	1.201
338.15 K, x2 = 0.3002	768.985	1.224
338.15 K, x2 = 0.4006	769.83	1.242
338.15 K, x2 = 0.5004	770.644	1.258
338.15 K, x2 = 0.6005	771.436	1.275
338.15 K, x2 = 0.6999	772.174	1.29
338.15 K, x2 = 0.7989	772.85	1.302
338.15 K, x2 = 0.8988	773.53	1.315
343.15 K, x2 = 0.1008	762.161	1.055
343.15 K, x2 = 0.2005	763.194	1.08
343.15 K, x2 = 0.3002	764.213	1.102
343.15 K, x2 = 0.4006	765.15	1.121
343.15 K, x2 = 0.5004	766.048	1.138
343.15 K, x2 = 0.6005	766.918	1.155
343.15 K, x2 = 0.6999	767.729	1.171
343.15 K, x2 = 0.7989	768.484	1.184
343.15 K, x2 = 0.8988	769.214	1.197

From the NIST ThermoML archive (doi:10.1021/je900722m)
